Assay results from ChEMBL document CHEMBL1157046, “QSAR modeling of taxane analogues against colon cancer” (Eur J Med Chem, 2010).
pIC50: −log10 of the molar value.

system: HCT-116; experiment: Cytotoxicity against human HCT116 cells after 72 hrs; format: functional, cell-based; details: HCT-116, 72 h

| SMILES | pIC50 |
| --- | --- |
| CC(=O)O[C@H]1C(=O)[C@@]2(C)[C@H]([C@H](OC(=O)c3ccccc3)[C@]3(O)C[C@H](OC(=O)[C@H](O)[C@@H](NC(=O)c4ccccc4)c4ccccc4)C(C)=C1C3(C)C)[C@]1(OC(=O)NC3CCC3)CO[C@@H]1C[C@@H]2O | 8.04 |
| C/C=C/C(=O)O[C@@]12CO[C@@H]1C[C@H](O)[C@@]1(C)C(=O)[C@H](OC(C)=O)C3=C(C)[C@@H](OC(=O)[C@H](O)[C@@H](NC(=O)c4ccccc4)c4ccccc4)C[C@@](O)([C@@H](OC(=O)c4ccccc4)[C@H]21)C3(C)C | 8.64 |
| CCCOC(=O)O[C@@]12CO[C@@H]1C[C@H](O)[C@@]1(C)C(=O)[C@H](OC(C)=O)C3=C(C)[C@@H](OC(=O)[C@H](O)[C@@H](NC(=O)c4ccccc4)c4ccccc4)C[C@@](O)([C@@H](OC(=O)c4ccccc4)[C@H]21)C3(C)C | 8.59 |
| CC(=O)O[C@H]1C(=O)[C@@]2(C)[C@H]([C@H](OC(=O)c3ccccc3)[C@]3(O)C[C@H](OC(=O)[C@H](O)[C@@H](NC(=O)c4ccccc4)c4ccccc4)C(C)=C1C3(C)C)[C@]1(OC(=O)C3CC3)CO[C@@H]1C[C@@H]2O | 9.00 |
| CCOC(=O)O[C@@]12CO[C@@H]1C[C@H](O)[C@@]1(C)C(=O)[C@H](OC(C)=O)C3=C(C)[C@@H](OC(=O)[C@H](O)[C@@H](NC(=O)c4ccccc4)c4ccccc4)C[C@@](O)([C@@H](OC(=O)c4ccccc4)[C@H]21)C3(C)C | 9.00 |
| CC(=O)O[C@H]1C(=O)[C@@]2(C)[C@H]([C@H](OC(=O)c3ccccc3)[C@]3(O)C[C@H](OC(=O)[C@H](O)[C@@H](NC(=O)c4ccccc4)c4ccccc4)C(C)=C1C3(C)C)[C@]1(OC(=O)c3ccccc3)CO[C@@H]1C[C@@H]2O | 6.39 |
| C=C(C)C(=O)O[C@@]12CO[C@@H]1C[C@H](O)[C@@]1(C)C(=O)[C@H](OC(C)=O)C3=C(C)[C@@H](OC(=O)[C@H](O)[C@@H](NC(=O)c4ccccc4)c4ccccc4)C[C@@](O)([C@@H](OC(=O)c4ccccc4)[C@H]21)C3(C)C | 8.35 |
| C=CC(=O)O[C@@]12CO[C@@H]1C[C@H](O)[C@@]1(C)C(=O)[C@H](OC(C)=O)C3=C(C)[C@@H](OC(=O)[C@H](O)[C@@H](NC(=O)c4ccccc4)c4ccccc4)C[C@@](O)([C@@H](OC(=O)c4ccccc4)[C@H]21)C3(C)C | 8.22 |
| CC(=O)O[C@H]1C(=O)[C@@]2(C)[C@H]([C@H](OC(=O)c3ccccc3)[C@]3(O)C[C@H](OC(=O)[C@H](O)[C@@H](NC(=O)c4ccccc4)c4ccccc4)C(C)=C1C3(C)C)[C@]1(OC(=O)c3ccc(F)cc3)CO[C@@H]1C[C@@H]2O | 6.10 |
| CC(=O)O[C@H]1C(=O)[C@@]2(C)[C@H]([C@H](OC(=O)c3ccccc3)[C@]3(O)C[C@H](OC(=O)[C@H](O)[C@@H](NC(=O)c4ccccc4)c4ccccc4)C(C)=C1C3(C)C)[C@]1(OC(=O)CF)CO[C@@H]1C[C@@H]2O | 8.15 |
| CCCCCC(=O)O[C@@]12CO[C@@H]1C[C@H](O)[C@@]1(C)C(=O)[C@H](OC(C)=O)C3=C(C)[C@@H](OC(=O)[C@H](O)[C@@H](NC(=O)c4ccccc4)c4ccccc4)C[C@@](O)([C@@H](OC(=O)c4ccccc4)[C@H]21)C3(C)C | 8.22 |
| COC(=O)O[C@@]12CO[C@@H]1C[C@H](O)[C@@]1(C)C(=O)[C@H](OC(C)=O)C3=C(C)[C@@H](OC(=O)[C@H](O)[C@@H](NC(=O)c4ccccc4)c4ccccc4)C[C@@](O)([C@@H](OC(=O)c4ccccc4)[C@H]21)C3(C)C [BMS-188797] | 8.70 |
| CC(=O)O[C@H]1C(=O)[C@@]2(C)[C@H]([C@H](OC(=O)c3ccccc3)[C@]3(O)C[C@H](OC(=O)[C@H](O)[C@@H](NC(=O)c4ccccc4)c4ccccc4)C(C)=C1C3(C)C)[C@]1(OC(=O)C(Cl)(Cl)Cl)CO[C@@H]1C[C@@H]2O | 8.40 |
| CC(=O)O[C@H]1C(=O)[C@@]2(C)[C@H]([C@H](OC(=O)c3ccccc3)[C@]3(O)C[C@H](OC(=O)[C@H](O)[C@@H](NC(=O)c4ccccc4)c4ccccc4)C(C)=C1C3(C)C)[C@]1(OC(=O)n3ccnc3)CO[C@@H]1C[C@@H]2O | 6.10 |
| CC(=O)O[C@H]1C(=O)[C@@]2(C)[C@H]([C@H](OC(=O)c3ccccc3)[C@]3(O)C[C@H](OC(=O)[C@H](O)[C@@H](NC(=O)c4ccccc4)c4ccccc4)C(C)=C1C3(C)C)[C@]1(OC(=O)C3CCC3)CO[C@@H]1C[C@@H]2O | 8.82 |
| CCCCC(=O)O[C@@]12CO[C@@H]1C[C@H](O)[C@@]1(C)C(=O)[C@H](OC(C)=O)C3=C(C)[C@@H](OC(=O)[C@H](O)[C@@H](NC(=O)c4ccccc4)c4ccccc4)C[C@@](O)([C@@H](OC(=O)c4ccccc4)[C@H]21)C3(C)C | 8.70 |
